From patent US10723741B1, “DNA polymerase IIIC inhibitors and use thereof” (Acurx Pharmaceuticals, LLC, priority 2018, dated 2020)
Converted amounts (≈) assume the structure as drawn.

Assays:
Type in all cases: cell-based
[1] = test system: Enterococcus faecium ATCC 700221 (VRE); assay: Broth microdilution MIC, E. faecium ATCC 700221 (VRE); settings: Enterococcus faecium; broth microdilution, 37° C., 20 hours; read-out: MIC E. faecium ATCC 700221 (VRE)
Text: (§1) Bacteria tested are Staphylococcus aureus NRS384 (a methicillin-resistant Staphylococcus aureus, MRSA), Staphylococcus aureus ATCC 29213 (a methicillin-sensitive Staphylococcus aureus, MSSA), Streptococcus pneumoniae ATCC 49619, Enterococcus faecalis ATCC 29212, Enterococcus faecium ATCC 700221 (a vancomycin-resistant enterococcus, VRE), Bacillus subtilis ATCC 6633, and Escherichia coli ATCC 25922.
(§2) Staphylococcus aureus NRS384 was obtained from NARSA (Network on Antimicrobial Resistance in Staphylococcus aureus, now the strain collection is in BEI resources). Other bacterial isolates were from ATCC (The American Type Culture Collection). Upon receiving the bacteria samples from aforementioned institutes, the bacteria were cultured according to the manuals provided by the suppliers. The bacteria were stored in 25% glycerol (final concentration) at −80° C.
(§3) On the day of testing, the compounds were dissolved in pure DMSO (Sigma 276855-1L) to […] as stock. In a v-bottom 96-well plate (Axygen-wipp02280), 20 μl DMSO was added into well 2 to well 12 by manual pipetting. Into well 1, 12.8 μL of compound DMSO stock (20 mg/ml) was added and mixed with 27.2 μl DMSO by pipetting. Two fold serial dilutions were performed by transferring and mixing 20 μl of solution from well 1 to well 2, then well 2 to well 3 and so forth until well 11. The well 12 was loaded with 20 μl DMSO without compounds. This was drug ‘mother plate’. From well 1 to well 12, the drug concentrations in the mother plate were […] in DMSO. A multi-pipette was used to perform the serial dilutions. The concentration may be adjusted according to the potency of the compounds. An Echo® Acoustic liquid handling system may be used to replace manual pipetting to make the daughter plates.
(§4) One day prior to the day of MIC testing, bacterial strains were streaked out from −80° C. glycerol stocks onto MHA plates and incubated at 37° C. for 20 hours. Streptococcus pneumoniae was streaked on blood agar and incubated at 37° C. in 5% CO2. The single colonies were picked by using an inoculation loop (Greiner-731175) and suspended into 5 ml sterile saline. The turbidity of the suspension was adjusted to 0.10 (Siemens MicroScan turbidity meter), equal to ˜1.0×10^8 cfu/ml. The bacterial suspension was diluted 200× in corresponding test medium (Table 1). This was used to inoculate daughter plates.
(§5) For preparing u-bottom 96-well ‘daughter plates’ (Costar 3788), an aliquot of 1 μl solution from mother plate was then replicating transferred into the daughter plate using a multi-pipette.
(§6) An aliquot of 99 μl of the bacterial suspension was inoculated into each well of the daughter plates using a multi-pipette. Each well contained ˜5.0×10^5 cfu/ml bacteria, 1% DMSO and serially diluted compounds at 64, 32, 16, 8, 4, 2, 1, 0.5, 0.25, 0.125, 0.0625 and 0 μg/ml from well 1 to well 12 respectively, in 100 μl corresponding test medium.
(§7) The plates were incubated in ambient atmosphere and in a 37° C. incubator for 20 hours.
(§8) Compounds of the present invention were tested for antibacterial activity against a variety of bacterial organism including Bacillus subtilis, Staphylococcus aureus, Enterococcus faecalis, Enterococcus faecium, Streptococcus pneumoniae and Escherichia coli. […] Compounds described in Examples 2, 44, 53, 56, 90, 134, 212, 213, 214, 218, 222, 304, 305, and 307 had MIC of ≤1 μg/ml against S. aureus NRS 384 (MRSA) (μg/ml) and E. faecium ATCC 700221 (VRE) (μg/ml).

[2] = test system: Staphylococcus aureus ATCC 29213 (MSSA); assay: Broth microdilution MIC, S. aureus ATCC 29213 (MSSA); settings: broth microdilution, 37° C., 20 hours, read-out: MIC S. aureus ATCC 29213 (MSSA)
Text: as §1, §2, §3, §4, §5, §6, §7, §8

[3] = test system: Bacillus subtilis ATCC 6633; assay: Broth microdilution MIC, B. subtilis ATCC 6633; settings: ATCC6633, broth microdilution, 37° C., 20 hours, read-out: MIC B. subtilis ATCC 6633
Text: as §1, §2, §3, §4, §5, §6, §7, §8

[4] = test system: Enterococcus faecalis ATCC 29212; assay: Broth microdilution MIC, E. faecalis ATCC 29212; settings: ATCC29212, broth microdilution, 37° C., 20 hours, read-out: MIC E. faecalis ATCC 29212
Text: as §1, §2, §3, §4, §5, §6, §7, §8

[5] = test system: Staphylococcus aureus NRS384 (MRSA); assay: Broth microdilution MIC, S. aureus NRS384 (MRSA); settings: Staphylococcus aureus; broth microdilution, 37° C., 20 hours; read-out: MIC NRS 384 (MRSA)
Text: as §1, §2, §3, §4, §5, §6, §7, §8

[6] = test system: Escherichia coli ATCC 25922; assay: Broth microdilution MIC, E. coli ATCC 25922 (MHIIB w & w/o 4 mM EDTA); settings: broth microdilution, 37° C., 20 hours; for MIC: Escherichia coli, ATCC25922, without EDTA, read-out: MIC E. coli ATCC 25922; for MIC E. coli ATCC 25922 + 4 mM EDTA: with 4 mM EDTA
Text: as §1, §2, §3, §4, §5, §6, §7, §8

[7] = test system: Streptococcus pneumoniae ATCC 49619; assay: Broth microdilution MIC, S. pneumoniae ATCC 49619; settings: ATCC49619, broth microdilution, 37° C., 20 hours, read-out: MIC S. pneumoniae ATCC 49619
Text: as §1, §2, §3, §4, §5, §6, §7, §8

| Structure (SMILES) | MIC [1] [µg/mL] | MIC [2] [µg/mL] | MIC [3] [µg/mL] | MIC [4] [µg/mL] | MIC [5] [µg/mL] | MIC [6] [µg/mL] | MIC E. coli ATCC 25922 + 4 mM EDTA [6] [µg/mL] | MIC [7] [µg/mL] |
| --- | --- | --- | --- | --- | --- | --- | --- | --- |
| Cn1ncc2nc(NCc3nc4ccccc4s3)[nH]c(=O)c21 [Compound 18, 5-((Benzo[d]thiazol-2-ylmethyl)amino)-1-methyl-1H-pyrazolo[4,3-d]pyrimidin-7(6H)-one] | > 64 | > 64 | > 64 | > 64 | > 64 | > 64 | >64 | > 64 |
| Cn1ncc2nc(NCc3ccc4[nH]cnc4c3)[nH]c(=O)c21 [Compound 19, 5-(((1H-benzo[d]imidazol-5-yl)methyl)amino)-1-methyl-1H-pyrazolo[4,3-d]pyrimidin-7(6H)-one] | > 64 | > 64 | > 64 | > 64 | > 64 | > 64 | >64 | > 64 |
| Cn1ncc2nc(NCc3cncs3)[nH]c(=O)c21 [Compound 20, 1-Methyl-5-((thiazol-5-ylmethyl)amino)-1H-pyrazolo[4,3-d]pyrimidin-7(6H)-one] | > 64 | > 64 | > 64 | > 64 | > 64 | > 64 | >64 | > 64 |
| Cn1ncc2nc(NCc3cnco3)[nH]c(=O)c21 [Compound 21, 1-Methyl-5-((oxazol-5-ylmethyl)amino)-1H-pyrazolo[4,3-d]pyrimidin-7(6H)-one] | > 64 | > 64 | > 64 | > 64 | > 64 | > 64 | >64 | > 64 |
| Cn1ncc2nc(NCc3ncc[nH]3)[nH]c(=O)c21 [Compound 22, 5-(((1H-imidazol-2-yl)methyl)amino)-1-methyl-1H-pyrazolo[4,3-d]pyrimidin-7(6H)-one] | > 64 | > 64 | > 64 | > 64 | > 64 | > 64 | >64 | > 64 |
| Cn1ncc2nc(NCc3cccnn3)[nH]c(=O)c21 [Compound 23, 1-Methyl-5-((pyridazin-3-ylmethyl)amino)-1H-pyrazolo[4,3-d]pyrimidin-7(6H)-one] | > 64 | > 64 | > 64 | > 64 | > 64 | > 64 | >64 | > 64 |
| Cn1ncc2nc(NCc3ccc(F)c(Cl)c3)[nH]c(=O)c21 [Compound 24, 5-((3-Chloro-4-fluorobenzyl)amino)-1-methyl-1H-pyrazolo[4,3-d]pyrimidin-7(6H)-one] | 8 (≈ 26 µM) | 8 (≈ 26 µM) | 8 (≈ 26 µM) | > 64 | 8 (≈ 26 µM) | > 64 | >64 | 4 (≈ 13 µM) |
| Cn1ncc2nc(NCc3ccc(Cl)cc3)[nH]c(=O)c21 [Compound 25, 5-((4-chlorobenzyl)amino)-1-methyl-1H-pyrazolo[4,3-d]pyrimidin-7(6H)-one] | 16 (≈ 55.2 µM) | 8 (≈ 27.6 µM) | 8 (≈ 27.6 µM) | 16 (≈ 55.2 µM) | 8 (≈ 27.6 µM) | > 64 | 64 | 4 (≈ 13.8 µM) |
| Cn1ncc2nc(NCc3cccc(Cl)c3)[nH]c(=O)c21 [Compound 26, 5-((3-Chlorobenzyl)amino)-1-methyl-1H-pyrazolo[4,3-d]pyrimidin-7(6H)-one] | 32 (≈ 110 µM) | 32 (≈ 110 µM) | 16 (≈ 55.2 µM) | 64 (≈ 221 µM) | 32 (≈ 110 µM) | > 64 | 64 | 16 (≈ 55.2 µM) |
| Cn1ncc2nc(NCc3ccccc3Cl)[nH]c(=O)c21 [Compound 27, 5-((2-Chlorobenzyl)amino)-1-methyl-1H-pyrazolo[4,3-d]pyrimidin-7(6H)-one] | > 64 | > 64 | > 64 | > 64 | > 64 | > 64 | 64 | > 64 |
| Cn1ncc2nc(NCc3ccc(Cl)cc3Cl)[nH]c(=O)c21 [Compound 28, 5-((2,4-Dichlorobenzyl)amino)-1-methyl-1H-pyrazolo[4,3-d]pyrimidin-7(6H)-one] | 16 (≈ 49.4 µM) | > 64 | 64 (≈ 197 µM) | > 64 | > 64 | > 64 | 64 | 64 (≈ 197 µM) |
| Cn1ncc2nc(NCc3cccc(Cl)c3Cl)[nH]c(=O)c21 [Compound 29, 5-((2,3-Dichlorobenzyl)amino)-1-methyl-1H-pyrazolo[4,3-d]pyrimidin-7(6H)-one] | > 64 | > 64 | > 64 | > 64 | > 64 | > 64 | >64 | > 64 |
| Cn1ncc2nc(NCc3c(Cl)cccc3Cl)[nH]c(=O)c21 [Compound 30, 5-((2,6-Dichlorobenzyl)amino)-1-methyl-1H-pyrazolo[4,3-d]pyrimidin-7(6H)-one] | > 64 | > 64 | > 64 | > 64 | > 64 | > 64 | >64 | > 64 |
| Cc1ccc(CNc2nc3cnn(C)c3c(=O)[nH]2)cc1Cl [Compound 31, 5-((3-Chloro-4-methylbenzyl)amino)-1-methyl-1H-pyrazolo[4,3-d]pyrimidin-7(6H)-one] | 4 (≈ 13.2 µM) | 4 (≈ 13.2 µM) | 2 (≈ 6.58 µM) | 8 (≈ 26.3 µM) | 4 (≈ 13.2 µM) | > 64 | 16 | 8 (≈ 26.3 µM) |
| COc1ccc(CNc2nc3cnn(C)c3c(=O)[nH]2)cc1OC [Compound 32, 5-((3,4-Dimethoxybenzyl)amino)-1-methyl-1H-pyrazolo[4,3-d]pyrimidin-7(6H)-one] | > 64 | > 64 | > 64 | > 64 | > 64 | > 64 | >64 | > 64 |
| Cc1ccc(CNc2nc3cnn(C)c3c(=O)[nH]2)cc1C [Compound 33, 5-((3,4-Dimethylbenzyl)amino)-1-methyl-1H-pyrazolo[4,3-d]pyrimidin-7(6H)-one] | 16 (≈ 56.5 µM) | 16 (≈ 56.5 µM) | 8 (≈ 28.2 µM) | 32 (≈ 113 µM) | 16 (≈ 56.5 µM) | > 64 | >64 | 16 (≈ 56.5 µM) |
